Assays:
SETVI (Foxtail, Green) [1] = experiment: Preemergence herbicidal evaluation; type: in vivo, Setaria viridis; conditions: rated 4-5 weeks after treatment; for SETVI rating: preemergence, 0-9 scale
Procedure, shortened: (§1)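 Scores use a 0–9 visual scale covering stand, vigor, malformation, size and chlorosis relative to controls, rated four to five weeks after treatment. Before emergence, soil-planted seeds were sprayed with compound in aqueous acetone at roughly 0.0156–0.500 kg/ha and held in the greenhouse.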

[2] = test system: TRZAWR (Wheat, Winter, cv Riband); experiment: Postemergence herbicidal evaluation; type: in vivo, Triticum aestivum; conditions: for herbicidal rating TRZAWR: postemergence
Procedure, shortened: (§2)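 Visual 0-9 injury score (stand, vigor, malformation, size, chlorosis, appearance vs untreated) taken four to five weeks post-spray, averaged across repeat tests. Test plants about two weeks old; foliar spray of acetone/water (1:1) with 0.5% surfactant delivering ~0.0156-0.500 kg active/ha.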

[3] = test system: SAGPY (Arrowhead (Pygmaea)); experiment: Postemergence weed control under flooded paddy conditions; type: in vivo, Sagittaria pygmaea; conditions: postemergence weeds
Procedure, shortened: (§3)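 Injury ratings (0–9 scale covering stand, vigor, malformation, size, chlorosis and overall appearance versus control) were made three to four weeks after treatment. Test material, about 0.0313 to 0.500 kg/ha a.i. in 50/50 v/v aqueous/acetone, was added to flood water 1.5 to 3 cm deep over 3 to 5 cm weeds and 1.5 to 2.5 leaf rice.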

[4] = test system: ECHORC (Watergrass (Calif.)); experiment: as above; type: in vivo, Echinochloa oryzoides; conditions: postemergence weeds
Procedure, shortened: as §3

CYPIR (Rice Flatsedge) = experiment: Preemergence weed control under flooded paddy conditions; type: in vivo, Cyperus iria; conditions: rated 3-4 weeks after treatment
Procedure, shortened: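 Herbicidal effect is scored visually on a 0-9 scale against an untreated control, three to four weeks after compounds are pipetted into the flood water (1.5 to 3 cm deep) over seeds planted in silt loam at 0.5 cm depth. Rates: about 0.0313 to 0.500 kg/ha.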

CYPSE (Flatsedge) = experiment: Postemergence weed control under flooded paddy conditions; type: in vivo, Cyperus serotinus; conditions: postemergence weeds
Procedure, shortened: as §3

AMBEL (Ragweed, Common) = experiment: Preemergence herbicidal evaluation; type: in vivo, Ambrosia artemisifolia; conditions: rated 4-5 weeks after treatment; for AMBEL rating: preemergence, 0-9 scale
Procedure, shortened: as §1

[5] = test system: CHEAL (Lambsquarters, Common); experiment: Postemergence herbicidal evaluation; type: in vivo, Chenopodium album; conditions: for herbicidal rating CHEAL: postemergence
Procedure, shortened: as §2

[6] = test system: GLXMAW (Soybean, Williams); experiment: Postemergence herbicidal evaluation; type: in vivo, Glycine max, (L.) Merr. cv Williams; conditions: for herbicidal rating GLXMAW: postemergence
Procedure, shortened: as §2

SETVI (Foxtail, Green) [7] = experiment: Postemergence herbicidal evaluation; type: in vivo, Setaria viridis; conditions: for herbicidal rating SETVI: postemergence
Procedure, shortened: as §2

ORYSAT (Rice, Tebonnet) = experiment: Postemergence herbicidal evaluation; type: in vivo, Oryza sativa, (L.) Tebonnet; conditions: for herbicidal rating ORYSAT: postemergence
Procedure, shortened: as §2

ZEAMX (Corn, Field) = experiment: Postemergence herbicidal evaluation; type: in vivo, Zea mays; conditions: for herbicidal rating ZEAMX: postemergence
Procedure, shortened: as §2

GALAP (Galium) = experiment: Preemergence herbicidal evaluation; type: in vivo, Galium aparine; conditions: rated 4-5 weeks after treatment; for GALAP rating: preemergence, 0-9 scale
Procedure, shortened: as §1

ABUTH (Velvetleaf) = experiment: Postemergence herbicidal evaluation; type: in vivo, Abutilon theophrasti; conditions: for herbicidal rating ABUTH: postemergence
Procedure, shortened: as §2

[8] = rate 0.0313 kg/ha, 3-4 weeks after treatment
[9] = rate 0.0625 kg/ha, 3-4 weeks after treatment
[10] = rate 0.1250 kg/ha, 3-4 weeks after treatment
[11] = rate 0.2500 kg/ha, 3-4 weeks after treatment
[12] = Rate 0.0313 kg/ha, rated 3 to 4 weeks after treatment
[13] = Rate 0.0625 kg/ha, rated 3 to 4 weeks after treatment
[14] = Rate 0.1250 kg/ha, rated 3 to 4 weeks after treatment
[15] = Rate 0.2500 kg/ha, rated 3 to 4 weeks after treatment

CCOC(=O)CN1C(=O)C(CC(=O)O)O/C1=N/c1cc(-n2c(=O)cc(C(F)(F)F)n(C)c2=O)c(F)cc1Cl (stereo not shown) [Compound 41, 2-{{2-Chloro-5-[3,6-dihydro-3-methyl-2,6-dioxo-4-(trifluoromethyl)-1(2H)-pyrimidinyl]-4-fluoro-phenyl}imino}-4-oxo-3,5-oxazolidinediacetic acid, 3-ethyl ester]
Preemergence herbicidal rating SETVI (SETVI (Foxtail, Green) [1]; rate 0.0156 kg/ha): 0.0 | Preemergence herbicidal rating SETVI (SETVI (Foxtail, Green) [1]; rate 0.0313 kg/ha): 0.0 | Preemergence herbicidal rating SETVI (SETVI (Foxtail, Green) [1]; rate 0.0625 kg/ha): 1.0 | Preemergence herbicidal rating SETVI (SETVI (Foxtail, Green) [1]; rate 0.1250 kg/ha): 1.0 | Preemergence herbicidal rating SETVI (SETVI (Foxtail, Green) [1]; rate 0.2500 kg/ha): 9.0 | Postemergence herbicidal rating TRZAWR ([2]; Rate 0.0158 kg/ha): 4.0 | Postemergence herbicidal rating TRZAWR ([2]; Rate 0.0315 kg/ha): 4.0 | Postemergence herbicidal rating TRZAWR ([2]; Rate 0.0630 kg/ha): 5.0 | Herbicidal rating SAGPY [3, 8]: 0.0 | Herbicidal rating SAGPY [3, 9]: 0.0 | Herbicidal rating SAGPY [3, 10]: 0.0 | Herbicidal rating SAGPY [3, 11]: 6.0 | Herbicidal rating ECHORC [4, 8]: 3.0 | Herbicidal rating ECHORC [4, 9]: 4.0 | Herbicidal rating ECHORC [4, 10]: 6.0 | Herbicidal rating ECHORC [4, 11]: 7.0 | Herbicidal rating CYPIR (CYPIR (Rice Flatsedge); 0.0313 kg/ha): 0.0 | Herbicidal rating CYPIR (CYPIR (Rice Flatsedge); 0.0625 kg/ha): 0.0 | Herbicidal rating CYPIR (CYPIR (Rice Flatsedge); 0.1250 kg/ha): 0.0 | Herbicidal rating CYPIR (CYPIR (Rice Flatsedge); 0.2500 kg/ha): 4.0 | Herbicidal rating CYPSE (CYPSE (Flatsedge); [8]): 0.0 | Herbicidal rating CYPSE (CYPSE (Flatsedge); [9]): 0.0 | Herbicidal rating CYPSE (CYPSE (Flatsedge); [10]): 2.0 | Herbicidal rating CYPSE (CYPSE (Flatsedge); [11]): 7.0 | Preemergence herbicidal rating AMBEL (AMBEL (Ragweed, Common); rate 0.0156 kg/ha): 0.0 | Preemergence herbicidal rating AMBEL (AMBEL (Ragweed, Common); rate 0.0313 kg/ha): 1.0 | Preemergence herbicidal rating AMBEL (AMBEL (Ragweed, Common); rate 0.0625 kg/ha): 2.0 | Preemergence herbicidal rating AMBEL (AMBEL (Ragweed, Common); rate 0.1250 kg/ha): 9.0 | Preemergence herbicidal rating AMBEL (AMBEL (Ragweed, Common); rate 0.2500 kg/ha): 8.0 | Postemergence herbicidal rating CHEAL ([5]; Rate 0.0158 kg/ha): 3.0 | Postemergence herbicidal rating CHEAL ([5]; Rate 0.0315 kg/ha): 7.0 | Postemergence herbicidal rating CHEAL ([5]; Rate 0.0630 kg/ha): 9.0 | Postemergence herbicidal rating GLXMAW ([6]; Rate 0.0158 kg/ha): 8.0 | Postemergence herbicidal rating GLXMAW ([6]; Rate 0.0315 kg/ha): 8.0 | Postemergence herbicidal rating GLXMAW ([6]; Rate 0.0630 kg/ha): 9.0 | Postemergence herbicidal rating SETVI (SETVI (Foxtail, Green) [7]; Rate 0.0158 kg/ha): 1.0 | Postemergence herbicidal rating SETVI (SETVI (Foxtail, Green) [7]; Rate 0.0315 kg/ha): 3.0 | Postemergence herbicidal rating SETVI (SETVI (Foxtail, Green) [7]; Rate 0.0630 kg/ha): 9.0 | Postemergence herbicidal rating ORYSAT (ORYSAT (Rice, Tebonnet); Rate 0.0158 kg/ha): 2.5 | Postemergence herbicidal rating ORYSAT (ORYSAT (Rice, Tebonnet); Rate 0.0315 kg/ha): 3.5 | Postemergence herbicidal rating ORYSAT (ORYSAT (Rice, Tebonnet); Rate 0.0630 kg/ha): 3.5 | Postemergence herbicidal rating ZEAMX (ZEAMX (Corn, Field); Rate 0.0158 kg/ha): 7.0 | Postemergence herbicidal rating ZEAMX (ZEAMX (Corn, Field); Rate 0.0315 kg/ha): 8.0 | Postemergence herbicidal rating ZEAMX (ZEAMX (Corn, Field); Rate 0.0630 kg/ha): 7.5 | Preemergence herbicidal rating GALAP (GALAP (Galium); rate 0.0156 kg/ha): 0.0 | Preemergence herbicidal rating GALAP (GALAP (Galium); rate 0.0625 kg/ha): 0.0 | Preemergence herbicidal rating GALAP (GALAP (Galium); rate 0.1250 kg/ha): 0.0 | Preemergence herbicidal rating GALAP (GALAP (Galium); rate 0.2500 kg/ha): 0.0 | Postemergence herbicidal rating ABUTH (ABUTH (Velvetleaf); Rate 0.0158 kg/ha): 9.0 | Postemergence herbicidal rating ABUTH (ABUTH (Velvetleaf); Rate 0.0315 kg/ha): 9.0 | Postemergence herbicidal rating ABUTH (ABUTH (Velvetleaf); Rate 0.0630 kg/ha): 9.0

CCS(=O)(=O)NC(=O)CC1SC(=Nc2cc(-n3c(=O)cc(C(F)(F)F)n(C)c3=O)c(F)cc2Cl)N(C)C1=O (stereo not shown) [Compound 105, 2-{{2-Chloro-5-[3,6-dihydro-3-methyl-2,6-dioxo-4-(trifluoromethyl)-1(2H)-pyrimidinyl]-4-fluorophenyl}imino}-N-(ethylsulfonyl)-3-methyl-4-oxo-5-thiazolidineacetamide]
SETVI rating (SETVI (Foxtail, Green) [1]; 0.1250 kg/ha): 0.0 | SETVI rating (SETVI (Foxtail, Green) [1]; 0.2500 kg/ha): 3.0 | SETVI rating (SETVI (Foxtail, Green) [1]; 0.5000 kg/ha): 3.0 | herbicidal rating TRZAWR ([2]; rate 0.0156 kg/ha): 3.5 | herbicidal rating TRZAWR ([2]; rate 0.0313 kg/ha): 3.0 | herbicidal rating TRZAWR ([2]; rate 0.0625 kg/ha): 3.5 | herbicidal rating TRZAWR ([2]; rate 0.1250 kg/ha): 3.5 | Herbicidal rating SAGPY [3, 12]: 3.0 | Herbicidal rating SAGPY [3, 13]: 5.0 | Herbicidal rating SAGPY [3, 14]: 5.0 | Herbicidal rating SAGPY [3, 15]: 7.0 | Herbicidal rating ECHORC [4, 12]: 0.0 | Herbicidal rating ECHORC [4, 13]: 3.0 | Herbicidal rating ECHORC [4, 14]: 4.0 | Herbicidal rating ECHORC [4, 15]: 5.0 | CYPIR herbicidal effect rating (CYPIR (Rice Flatsedge); 0.0313 kg/ha): 5.0 | CYPIR herbicidal effect rating (CYPIR (Rice Flatsedge); 0.0625 kg/ha): 7.0 | CYPIR herbicidal effect rating (CYPIR (Rice Flatsedge); 0.1250 kg/ha): 7.0 | CYPIR herbicidal effect rating (CYPIR (Rice Flatsedge); 0.2500 kg/ha): 9.0 | Herbicidal rating CYPSE (CYPSE (Flatsedge); [12]): 2.0 | Herbicidal rating CYPSE (CYPSE (Flatsedge); [13]): 5.0 | Herbicidal rating CYPSE (CYPSE (Flatsedge); [14]): 7.0 | Herbicidal rating CYPSE (CYPSE (Flatsedge); [15]): 9.0 | AMBEL rating (AMBEL (Ragweed, Common); 0.1250 kg/ha): 1.0 | AMBEL rating (AMBEL (Ragweed, Common); 0.2500 kg/ha): 3.0 | AMBEL rating (AMBEL (Ragweed, Common); 0.5000 kg/ha): 4.0 | herbicidal rating CHEAL ([5]; rate 0.0156 kg/ha): 0.0 | herbicidal rating CHEAL ([5]; rate 0.0313 kg/ha): 0.0 | herbicidal rating CHEAL ([5]; rate 0.0625 kg/ha): 2.0 | herbicidal rating CHEAL ([5]; rate 0.1250 kg/ha): 2.0 | herbicidal rating GLXMAW ([6]; rate 0.0156 kg/ha): 3.0 | herbicidal rating GLXMAW ([6]; rate 0.0313 kg/ha): 4.5 | herbicidal rating GLXMAW ([6]; rate 0.0625 kg/ha): 6.5 | herbicidal rating GLXMAW ([6]; rate 0.1250 kg/ha): 7.5 | herbicidal rating SETVI (SETVI (Foxtail, Green) [7]; rate 0.0156 kg/ha): 0.0 | herbicidal rating SETVI (SETVI (Foxtail, Green) [7]; rate 0.0313 kg/ha): 0.0 | herbicidal rating SETVI (SETVI (Foxtail, Green) [7]; rate 0.0625 kg/ha): 2.0 | herbicidal rating SETVI (SETVI (Foxtail, Green) [7]; rate 0.1250 kg/ha): 5.0 | herbicidal rating ORYSAT (ORYSAT (Rice, Tebonnet); rate 0.0156 kg/ha): 0.0 | herbicidal rating ORYSAT (ORYSAT (Rice, Tebonnet); rate 0.0313 kg/ha): 0.0 | herbicidal rating ORYSAT (ORYSAT (Rice, Tebonnet); rate 0.0625 kg/ha): 0.0 | herbicidal rating ORYSAT (ORYSAT (Rice, Tebonnet); rate 0.1250 kg/ha): 2.0 | herbicidal rating ZEAMX (ZEAMX (Corn, Field); rate 0.0156 kg/ha): 3.5 | herbicidal rating ZEAMX (ZEAMX (Corn, Field); rate 0.0313 kg/ha): 5.0 | herbicidal rating ZEAMX (ZEAMX (Corn, Field); rate 0.0625 kg/ha): 6.0 | herbicidal rating ZEAMX (ZEAMX (Corn, Field); rate 0.1250 kg/ha): 7.0 | GALAP rating (GALAP (Galium); 0.2500 kg/ha): 3.0 | GALAP rating (GALAP (Galium); 0.5000 kg/ha): 7.0 | herbicidal rating ABUTH (ABUTH (Velvetleaf); rate 0.0156 kg/ha): 4.0 | herbicidal rating ABUTH (ABUTH (Velvetleaf); rate 0.0313 kg/ha): 4.0 | herbicidal rating ABUTH (ABUTH (Velvetleaf); rate 0.0625 kg/ha): 4.0 | herbicidal rating ABUTH (ABUTH (Velvetleaf); rate 0.1250 kg/ha): 9.0
